From the NIST ThermoML archive (doi:10.1021/je100377k)
± gives the expanded uncertainty stated by the source.

Details: 101.33 kPa, Liquid

Row | SMILES | mass density (278.15 K) [kg/m3] | viscosity (278.15 K) [mPa·s] | mass density (283.15 K) [kg/m3] | viscosity (283.15 K) [mPa·s] | mass density (288.15 K) [kg/m3] | mass density (293.15 K) [kg/m3] | mass density (298.15 K) [kg/m3] | mass density (303.15 K) [kg/m3] | mass density (308.15 K) [kg/m3] | mass density (313.15 K) [kg/m3] | mass density (318.15 K) [kg/m3] | mass density (323.15 K) [kg/m3] | mass density (328.15 K) [kg/m3] | mass density (333.15 K) [kg/m3] | mass density (338.15 K) [kg/m3] | mass density (343.15 K) [kg/m3] | mass density (348.15 K) [kg/m3] | mass density (353.15 K) [kg/m3] | mass density (358.15 K) [kg/m3] | mass density (363.15 K) [kg/m3] | also measured
1 | CCCC[n+]1ccc(C)cc1.O=S(=O)([N-]S(=O)(=O)C(F)(F)F)C(F)(F)F | 1431 ± 1.8 | 169.9 ± 11 | 1426.3 ± 1.8 | 124.19 ± 6.2 | 1421.6 ± 1.8 | 1416.9 ± 1.8 | 1412.2 ± 1.7 | 1407.6 ± 1.7 | 1402.9 ± 1.7 | 1398.3 ± 1.7 | 1393.6 ± 1.7 | 1389 ± 1.7 | 1384.4 ± 1.7 | 1379.8 ± 1.7 | 1375.3 ± 1.7 | 1370.7 ± 1.7 | 1366.2 ± 1.7 | 1361.7 ± 1.6 | 1357.2 ± 1.6 | 1352.7 ± 1.6 | viscosity (288.15 K): 93.27 ± 3.2 mPa·s; viscosity (293.15 K): 71.72 ± 1.5 mPa·s; viscosity (298.15 K): 56.33 ± 0.6 mPa·s; viscosity (303.15 K): 45.07 ± 0.66 mPa·s; viscosity (308.15 K): 36.67 ± 0.54 mPa·s; viscosity (313.15 K): 30.28 ± 0.44 mPa·s; viscosity (318.15 K): 25.34 ± 0.37 mPa·s; viscosity (323.15 K): 21.45 ± 0.32 mPa·s; viscosity (328.15 K): 18.36 ± 0.27 mPa·s; viscosity (333.15 K): 15.87 ± 0.24 mPa·s; viscosity (338.15 K): 13.82 ± 0.21 mPa·s; viscosity (343.15 K): 12.13 ± 0.18 mPa·s; viscosity (348.15 K): 10.72 ± 0.16 mPa·s; viscosity (353.15 K): 9.54 ± 0.15 mPa·s; viscosity (358.15 K): 8.531 ± 0.13 mPa·s; viscosity (363.15 K): 7.673 ± 0.12 mPa·s
2 | CCCC[n+]1cccc(C)c1.O=S(=O)([N-]S(=O)(=O)C(F)(F)F)C(F)(F)F | 1431.2 ± 1.8 | – | 1426.6 ± 1.8 | – | 1421.9 ± 1.8 | 1417.4 ± 1.8 | 1412.8 ± 1.7 | 1408.2 ± 1.7 | 1403.6 ± 1.7 | 1399 ± 1.7 | 1394.5 ± 1.7 | 1389.9 ± 1.7 | 1385.4 ± 1.7 | 1380.9 ± 1.7 | 1376.4 ± 1.7 | 1371.9 ± 1.7 | 1367.4 ± 1.7 | 1362.9 ± 1.6 | 1358.5 ± 1.6 | 1354.1 ± 1.6 | viscosity (278.15 K, Capillary tube (Ostwald / Ubbelohde) method): 195.43 ± 4.6 mPa·s; viscosity (283.15 K, Capillary tube (Ostwald / Ubbelohde) method): 142.73 ± 2.7 mPa·s; viscosity (288.15 K, Capillary tube (Ostwald / Ubbelohde) method): 107.15 ± 1.6 mPa·s; viscosity (293.15 K, Capillary tube (Ostwald / Ubbelohde) method): 82.19 ± 0.97 mPa·s; viscosity (298.15 K, Capillary tube (Ostwald / Ubbelohde) method): 64.36 ± 0.62 mPa·s; viscosity (303.15 K, Capillary tube (Ostwald / Ubbelohde) method): 51.39 ± 0.45 mPa·s; viscosity (308.15 K, Capillary tube (Ostwald / Ubbelohde) method): 41.64 ± 0.4 mPa·s; viscosity (313.15 K, Capillary tube (Ostwald / Ubbelohde) method): 34.26 ± 0.33 mPa·s; viscosity (318.15 K, Capillary tube (Ostwald / Ubbelohde) method): 28.57 ± 0.27 mPa·s; viscosity (323.15 K, Capillary tube (Ostwald / Ubbelohde) method): 24.1 ± 0.23 mPa·s; viscosity (328.15 K, Capillary tube (Ostwald / Ubbelohde) method): 20.57 ± 0.2 mPa·s; viscosity (333.15 K, Capillary tube (Ostwald / Ubbelohde) method): 17.71 ± 0.17 mPa·s; viscosity (338.15 K, Capillary tube (Ostwald / Ubbelohde) method): 15.38 ± 0.15 mPa·s; viscosity (343.15 K, Capillary tube (Ostwald / Ubbelohde) method): 13.47 ± 0.13 mPa·s; viscosity (348.15 K, Capillary tube (Ostwald / Ubbelohde) method): 11.9 ± 0.11 mPa·s; viscosity (353.15 K, Capillary tube (Ostwald / Ubbelohde) method): 10.56 ± 0.1 mPa·s; viscosity (358.15 K, Capillary tube (Ostwald / Ubbelohde) method): 9.44 ± 0.091 mPa·s; viscosity (363.15 K, Capillary tube (Ostwald / Ubbelohde) method): 8.484 ± 0.082 mPa·s
3 | CCC[n+]1cccc(C)c1.O=S(=O)([N-]S(=O)(=O)C(F)(F)F)C(F)(F)F | 1467.1 ± 1.9 | 159.86 ± 10 | 1462.3 ± 1.9 | 117.81 ± 5.5 | 1457.5 ± 1.8 | 1452.8 ± 1.8 | 1447.5 ± 1.8 | 1442.8 ± 1.8 | 1438.1 ± 1.8 | 1433.4 ± 1.8 | 1428.8 ± 1.8 | 1424.1 ± 1.8 | 1419.5 ± 1.8 | 1414.9 ± 1.8 | 1410.3 ± 1.7 | 1405.7 ± 1.7 | 1401.1 ± 1.7 | 1396.6 ± 1.7 | 1392.1 ± 1.7 | 1387.7 ± 1.7 | viscosity (288.15 K): 89.22 ± 2.9 mPa·s; viscosity (293.15 K): 69.11 ± 1.3 mPa·s; viscosity (298.15 K): 54.94 ± 0.55 mPa·s; viscosity (303.15 K): 44.22 ± 0.64 mPa·s; viscosity (308.15 K): 36.15 ± 0.53 mPa·s; viscosity (313.15 K): 29.98 ± 0.44 mPa·s; viscosity (318.15 K): 25.2 ± 0.37 mPa·s; viscosity (323.15 K): 21.43 ± 0.32 mPa·s; viscosity (328.15 K): 18.41 ± 0.27 mPa·s; viscosity (333.15 K): 15.97 ± 0.24 mPa·s; viscosity (338.15 K): 13.97 ± 0.21 mPa·s; viscosity (343.15 K): 12.31 ± 0.19 mPa·s; viscosity (348.15 K): 10.93 ± 0.17 mPa·s; viscosity (353.15 K): 9.769 ± 0.15 mPa·s; viscosity (358.15 K): 8.782 ± 0.14 mPa·s; viscosity (363.15 K): 7.937 ± 0.12 mPa·s
4 | CCCC[n+]1ccccc1.O=S(=O)([N-]S(=O)(=O)C(F)(F)F)C(F)(F)F [1-butylpyridinium bis[(trifluoromethyl)sulfonyl]imide] | 1467.6 ± 1.9 | 181.81 ± 13 | 1462.8 ± 1.9 | 133.34 ± 7.1 | 1458.1 ± 1.8 | 1453.4 ± 1.8 | 1448.7 ± 1.8 | 1444 ± 1.8 | 1439.3 ± 1.8 | 1434.6 ± 1.8 | 1430 ± 1.8 | 1425.4 ± 1.8 | 1420.7 ± 1.8 | 1416.1 ± 1.8 | 1411.6 ± 1.7 | 1407 ± 1.7 | 1402.5 ± 1.7 | 1398 ± 1.7 | 1393.5 ± 1.7 | 1389 ± 1.7 | viscosity (288.15 K): 100.65 ± 3.9 mPa·s; viscosity (293.15 K): 77.72 ± 1.9 mPa·s; viscosity (298.15 K): 61.25 ± 0.82 mPa·s; viscosity (303.15 K): 49.15 ± 0.72 mPa·s; viscosity (308.15 K): 40.09 ± 0.58 mPa·s; viscosity (313.15 K): 33.17 ± 0.49 mPa·s; viscosity (318.15 K): 27.81 ± 0.41 mPa·s; viscosity (323.15 K): 23.59 ± 0.35 mPa·s; viscosity (328.15 K): 20.23 ± 0.3 mPa·s; viscosity (333.15 K): 17.51 ± 0.26 mPa·s; viscosity (338.15 K): 15.28 ± 0.23 mPa·s; viscosity (343.15 K): 13.44 ± 0.2 mPa·s; viscosity (348.15 K): 11.91 ± 0.18 mPa·s; viscosity (353.15 K): 10.62 ± 0.16 mPa·s; viscosity (358.15 K): 9.528 ± 0.15 mPa·s; viscosity (363.15 K): 8.594 ± 0.13 mPa·s
5 | CCCCCC[n+]1ccccc1.O=S(=O)([N-]S(=O)(=O)C(F)(F)F)C(F)(F)F [1-hexylpyridinium bis(trifluromethylsulfonyl)imide] | 1412.5 ± 1.7 | 322.08 ± 32 | 1407.8 ± 1.7 | 229.05 ± 19 | 1403.2 ± 1.7 | 1398.7 ± 1.7 | 1394.2 ± 1.7 | 1389.7 ± 1.7 | 1385.2 ± 1.7 | 1380.7 ± 1.7 | 1376.3 ± 1.7 | 1371.8 ± 1.7 | 1367.3 ± 1.7 | 1362.9 ± 1.6 | 1358.5 ± 1.6 | 1354 ± 1.6 | 1349.6 ± 1.6 | 1345.3 ± 1.6 | 1340.9 ± 1.6 | 1336.6 ± 1.6 | viscosity (288.15 K): 167.56 ± 11 mPa·s; viscosity (293.15 K): 125.56 ± 6.3 mPa·s; viscosity (298.15 K): 96.21 ± 3.5 mPa·s; viscosity (303.15 K): 75.22 ± 1.7 mPa·s; viscosity (308.15 K): 59.86 ± 0.75 mPa·s; viscosity (313.15 K): 48.42 ± 0.7 mPa·s; viscosity (318.15 K): 39.74 ± 0.58 mPa·s; viscosity (323.15 K): 33.04 ± 0.48 mPa·s; viscosity (328.15 K): 27.79 ± 0.41 mPa·s; viscosity (333.15 K): 23.64 ± 0.35 mPa·s; viscosity (338.15 K): 20.3 ± 0.3 mPa·s; viscosity (343.15 K): 17.58 ± 0.26 mPa·s; viscosity (348.15 K): 15.35 ± 0.23 mPa·s; viscosity (353.15 K): 13.51 ± 0.2 mPa·s; viscosity (358.15 K): 11.96 ± 0.18 mPa·s; viscosity (363.15 K): 10.66 ± 0.16 mPa·s
6 | CCCCCCCC[n+]1cccc(C)c1 [1-octyl-3-methylpyridinium] | 1347.2 ± 1.6 | 398.72 ± 45 | 1342.7 ± 1.6 | 281.38 ± 26 | 1338.2 ± 1.6 | 1333.8 ± 1.6 | 1329.5 ± 1.6 | 1325.2 ± 1.6 | 1320.9 ± 1.6 | 1316.6 ± 1.5 | 1312.3 ± 1.5 | 1308 ± 1.5 | 1303.7 ± 1.5 | 1299.5 ± 1.5 | 1295.2 ± 1.5 | 1290.9 ± 1.5 | 1286.7 ± 1.5 | 1282.5 ± 1.5 | 1278.3 ± 1.5 | 1274.1 ± 1.5 | viscosity (288.15 K): 204.35 ± 16 mPa·s; viscosity (293.15 K): 151.98 ± 9.2 mPa·s; viscosity (298.15 K): 115.55 ± 5.3 mPa·s; viscosity (303.15 K): 89.6 ± 2.9 mPa·s; viscosity (308.15 K): 70.72 ± 1.4 mPa·s; viscosity (313.15 K): 56.77 ± 0.62 mPa·s; viscosity (318.15 K): 46.23 ± 0.67 mPa·s; viscosity (323.15 K): 38.14 ± 0.56 mPa·s; viscosity (328.15 K): 31.86 ± 0.47 mPa·s; viscosity (333.15 K): 26.91 ± 0.4 mPa·s; viscosity (338.15 K): 22.95 ± 0.34 mPa·s; viscosity (343.15 K): 19.77 ± 0.29 mPa·s; viscosity (348.15 K): 17.16 ± 0.26 mPa·s; viscosity (353.15 K): 15.02 ± 0.23 mPa·s; viscosity (358.15 K): 13.23 ± 0.2 mPa·s; viscosity (363.15 K): 11.74 ± 0.18 mPa·s
